What was measured:
[1] = tested on: Echovirus type 11 (EV 11); assay: Anti-echoviral cell culture assay, EV 11; assay type: cell-based; settings: Enterovirus B, MRC5, 96 h; Strain EV-11; MRC-5 cells; four days; XTT; read-out: EC50
Method: Echovirus type 11 (EV 11) and enterovirus type 70 (EV 70) were purchased from ATCC (Rockville, Md.). Virus stocks were propagated and antiviral assays were performed in MRC-5 cells (ATCC). Cells were grown in minimal essential medium with 10% fetal bovine serum (Life Technologies, Gaithersburg, Md.).
The ability of compounds to protect cells against either EV 11 or EV 70 infection was measured by the XTT dye reduction method (Weislow et al., J. Natl. Cancer Inst. 1989, vol. 81, 577-586). MRC-5 cells were infected with EV 11 or EV 70 at an m.o.i. of 0.003 or 0.004, respectively, or mock-infected with medium only. Infected or uninfected cells were added at 1×10^4 cells per well and incubated with appropriate concentrations of compound. Four days later, XTT/PMS was added to test plates, and the amount of formazan produced was quantified spectrophotometrically at 450/650 nm. The EC50 was calculated as the concentration of compound that increased the formazan production in compound-treated, virus-infected cells to 50% of that produced by compound-free, uninfected cells. The 50% cytotoxic dose (CC50) was calculated as the concentration of compound that decreased formazan production in compound-treated, uninfected cells to 50% of that produced in compound-free, uninfected cells. The therapeutic index (TI) was calculated by dividing the CC50 by the EC50.
The compounds were tested against control compounds Pirodavir (obtained from Janssen Pharmaceuticals) and Pleconaril (prepared according to Diana et al., J. Med. Chem. 1995, vol. 38, 1355). Antiviral data obtained for the test compounds against strain EV 11 and EV 70 are shown below in Table 5.

[2] = tested on: HRV (13); assay: Antirhinoviral H1-HeLa cell culture assay, HRV serotype 13; assay type: cell-based, human rhinovirus; settings: Human rhinovirus sp., H1-HeLa, H1-HeLa cells, XTT
Method: (§1) In this cell protection assay, the ability of compounds to protect cells against HRV infection was measured by the XTT dye reduction method, which is described in Weislow et al., J. Natl. Cancer Inst. 1989, vol. 81, 577-586.
(§2) H1-HeLa cells were infected with HRV-14 at a multiplicity of infection (m.o.i.) of 0.13 (virus particles/cell) or mock-infected with medium only. Infected or mock-infected cells were resuspended at 8×10^5 cells per mL, and incubated with appropriate concentrations of the compounds to be tested. Two days later, XTT/PMS was added to test plates and the amount of formazan produced was quantified spectrophotometrically at 450/650 nm. The EC50 value was calculated as the concentration of compound that increased the percentage of formazan production in compound-treated, virus-infected cells to 50% of that produced by compound-free, mock-infected cells. The 50% cytotoxic dose (CC50) was calculated as the concentration of compound that decreased the percentage of formazan produced in compound-treated, mock-infected cells to 50% of that produced by compound-free, mock-infected cells. The therapeutic index (TI) was calculated by dividing the CC50 value by the EC50 value.
(§3) All strains of human rhinovirus (HRV) for use in this assay were purchased from American Type Culture Collection (ATCC), except for HRV serotype-14 (produced from the infectious cDNA clone constructed by Dr. Robert Rueckert, Institute for Molecular Virology, University of Wisconsin, Madison, Wis.). HRV stocks were propagated and viral assays were performed in H1-HeLa cells (ATCC). Cells were grown in minimal essential medium with 10% fetal bovine serum, available from Life Technologies (Gaithersburg, Md.).
(§4) The compounds were tested against control compounds WIN 51711, WIN 52084, and WIN 54954 (obtained from Sterling-Winthrop Pharmaceuticals), Pirodavir (obtained from Janssen Pharmaceuticals), and Pleconaril (prepared according to the method described in Diana et al., J. Med. Chem 1995, vol. 38, 1355). […]

[3] = tested on: HRV (9); assay: Antirhinoviral H1-HeLa cell culture assay, HRV serotype 9; assay type: cell-based, human rhinovirus; settings: Human rhinovirus sp., H1-HeLa cells, XTT
Method: as §1, §2, §3, §4

[4] = tested on: HRV (1A); assay: Antirhinoviral H1-HeLa cell culture assay, HRV serotype 1A; assay type: cell-based; settings: Human rhinovirus sp., H1-HeLa cells, XTT
Method: as §1, §2, §3
(§5) The compounds were tested against control compounds WIN 51711, WIN 52084, and WIN 54954 (obtained from Sterling-Winthrop Pharmaceuticals), Pirodavir (obtained from Janssen Pharmaceuticals), and Pleconaril (prepared according to the method described in Diana et al., J. Med. Chem 1995, vol. 38, 1355). Antiviral data obtained for the test compounds are shown in Tables 1 and 3, where all data are for HRV serotype-14 unless otherwise noted in parentheses.

[5] = tested on: HRV (12); assay: Antirhinoviral H1-HeLa cell culture assay, HRV serotype 12; assay type: cell-based; settings: Human rhinovirus sp., H1-HeLa cells, XTT
Method: as §1
as §2, with “value. […]” for “value.”

[6] = tested on: Coxsackievirus type A-21 (CAV-21); assay: Anticoxsackieviral cell culture assay, CAV-21; assay type: cell-based; settings: 48 h, Strain CAV-21, H1-HeLa cells, two days, XTT, read-out: EC50
Method: Coxsackievirus types A-21 (CAV-21) and B3 (CVB-3) were purchased from American Type Culture Collection (ATCC, Rockville, Md.). Virus stocks were propagated and antiviral assays were performed in H1-HeLa cells (ATCC). Cells were grown in minimal essential medium with 10% fetal bovine serum (Life Technologies, Gaithersburg, Md.).
The ability of compounds to protect cells against either CAV-21 or CVB-3 infection was measured by the XTT dye reduction method. This method is described in Weislow et al., J. Natl. Cancer Inst. 1989, vol. 81, 577-586. H1-HeLa cells were infected with CAV-21 or CVB-3 at a multiplicity of infection (m.o.i.) of 0.025 or 0.075, respectively, or mock-infected with medium only. H1-HeLa cells were plated at 4×10^4 cells per well in a 96-well plate and incubated with appropriate concentrations of the test compound. One day (CVB-3) or two days (CAV-21) later, XTT/PMS was added to test plates and the amount of formazan produced was quantified spectrophotometrically at 450/650 nm. The EC50 was calculated as the concentration of compound that increased the formazan production in compound-treated, virus-infected cells to 50% of that produced by compound-free, uninfected cells. The 50% cytotoxic dose (CC50) was calculated as the concentration of compound that decreased formazan production in compound-treated, uninfected cells to 50% of that produced in compound-free, uninfected cells. The therapeutic index TI) was calculated by dividing the CC50 by the EC50.
The compounds were tested against control compounds WIN 54954 (obtained from Sterling-Winthrop Pharmaceuticals), Pirodavir (obtained from Janssen Pharmaceuticals), and Pleconaril (prepared according to Diana et al., J. Med. Chem. 1995, 38, 1355).

[7] = tested on: HRV (10); assay: Antirhinoviral H1-HeLa cell culture assay, HRV serotype 10; assay type: cell-based, human rhinovirus; settings: Human rhinovirus sp., H1-HeLa, H1-HeLa cells, XTT
Method: as §1, §2, §3, §5

[8] = tested on: HRV (87); assay: Antirhinoviral H1-HeLa cell culture assay, HRV serotype 87; assay type: cell-based; settings: Human rhinovirus sp., H1-HeLa cells, XTT
Method: as §1
as §2, with “value. […]” for “value.”

## CCOC(=O)/C=C/[C@H](C[C@@H]1CCNC1=O)NC(=O)[C@@H](CC(=O)[C@@H](NC(=O)c1cc(C)on1)C(C)C)Cc1ccc(F)cc1 [Compound B-2, Ethyl-3-{(5′-Methylisoxazole-3′-carbonyl)-L-ValΨ(COCH2)-L-(4-F-Phe)-L-((S)-Pyrrol-Ala)}-E-Propenoate]
[1]
  EC50: 10 nM
[2]
  EC50: 10 nM
[3]
  EC50: 6 nM
[4]
  EC50: 20 nM
[5]
  EC50: 50 nM
[6]
  EC50: 160 nM
[7]
  EC50: 20 nM
[8]
  EC50: 60 nM
